Among the data in publication PMC8689651, “Chemical Mapping Exposes the Importance of Active Site Interactions in Governing the Temperature Dependence of Enzyme Turnover” (ACS Catalysis, 2021) are Ki values, retold here.

The target in this assay is T1, ssGDH (glucose dehydrogenase from Sulfolobus solfataricus) (Saccharolobus solfataricus, UniProt O93715).
T1 construct: gene gdh; full-length, recombinant from pET3a, heat step (70 °C), anion exchange and gel filtration, no tag mentioned; homotetramer; five Trp per monomer
The assay can be described thus: steady-state NADPH formation at […] nm. Format: biochemical. To be noted: apparent substrate inhibition; co-substrate NADP+; 100 mM HEPES pH 8; temperature not stated with the value.

T1 sequence (O93715 whole entry): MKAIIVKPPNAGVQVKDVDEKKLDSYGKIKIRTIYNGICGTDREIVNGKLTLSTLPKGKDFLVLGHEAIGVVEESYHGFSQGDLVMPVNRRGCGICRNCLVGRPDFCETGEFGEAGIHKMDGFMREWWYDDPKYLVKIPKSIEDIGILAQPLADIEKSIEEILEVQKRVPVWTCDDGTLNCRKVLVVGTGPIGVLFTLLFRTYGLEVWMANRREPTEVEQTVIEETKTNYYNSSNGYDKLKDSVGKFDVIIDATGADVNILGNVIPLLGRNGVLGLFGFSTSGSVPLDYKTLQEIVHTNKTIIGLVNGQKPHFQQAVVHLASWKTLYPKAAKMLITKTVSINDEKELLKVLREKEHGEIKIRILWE

Regarding `OC[C@@H]1C[C@H](O)[C@@H](O)C(O)O1` (stereo partly drawn) [4-deoxy, 4-deoxy-D-glucose], the Ki is 29.5 ± 8.7 mM.
